Drawing on US6087364A, “Dopamine D4 receptor antagonists” (Warner-Lambert Company, priority 1998, dated 2000), this text covers Ki and ED50 for eleven molecules.

Like-named read-outs stand apart in the source and are kept apart here.

The target of test [1] is T1, human recombinant dopamine D4.2 receptor (Homo sapiens, UniProt P21917, DEL265-296).
T1 construct: expressed in transfected cells
T1 sequence (P21917 with tags, fused parts or gaps DEL265-296): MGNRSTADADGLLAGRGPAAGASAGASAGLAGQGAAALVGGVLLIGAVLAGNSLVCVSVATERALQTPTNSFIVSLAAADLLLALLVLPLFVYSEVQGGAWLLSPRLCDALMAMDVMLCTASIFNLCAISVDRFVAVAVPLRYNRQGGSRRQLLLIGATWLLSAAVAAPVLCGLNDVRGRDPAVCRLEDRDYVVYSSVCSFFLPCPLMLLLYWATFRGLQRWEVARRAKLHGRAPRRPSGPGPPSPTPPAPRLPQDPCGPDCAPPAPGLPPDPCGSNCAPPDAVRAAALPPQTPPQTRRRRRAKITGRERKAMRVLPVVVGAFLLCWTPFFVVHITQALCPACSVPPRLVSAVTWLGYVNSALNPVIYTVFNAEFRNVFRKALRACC
The experiment in a line: D4.2 dopamine receptor binding assay ([3H]spiperone, membranes of CHO K1 cells). The note with it: human D4.2 receptor, 0.2 nM [3H]spiperone, 60 min, 25° C., apparent Ki from IC50 (Cheng and Prusoff). The source says: (§1) A cell line expressing human dopamine D2 (Long form) receptors was purchased from Oregon Health Sciences University, Portland, Oreg. The D2 receptor cDNA was subcloned into an expression vector, pRc/CMV. The plasmids were transfected by electroporation into CHO K1 cells. A single stable transfectant, resistant to the antibiotic G418, was isolated and selected for use in the binding studies. For D4 binding, CHO K1 cells stably transfected to express the human recombinant dopamine D4.2 receptor subtype, as described by Shih, et al., "The Expression and Functional Characterization of Human Dopamine D4.2 Receptor in CHO K1 Cells," Soc. Neurosci., 21(Part 1): 621 (1995).
(§2) CHO K1 cells expressing either human D2 and D4.2 receptors were grown in 162 cm^2 culture flasks in F12 medium (Gibco Laboratories, Grand Island, N.Y.) supplemented with 10% fetal bovine serum (FBS, Hyclone, Logan, Utah) in an atmosphere of 5% CO2 /95% air at 37° C. Cells were grown until confluent, after which growth medium was removed and replaced with 0.02% ethylene diamine tetracetate (EDTA) in a phosphate-buffered saline solution (Sigma Chemical Co., St. Louis, Mo.) and scraped from the flasks. The cells were centrifuged at about 1000× g for 10 minutes at […] and then resuspended in TEM buffer (25 mM Tris-HCl, pH 7.4, 5 mM EDTA, and 6 mM MgCl2) for D2 or the D4.2 buffer (50 mM Tris-HCl, pH 7.4, 5 mM EDTA, 1.5 mM CaCl2, 5 mM KC1, and 120 mM NaCl) and homogenized. The membranes were pelleted by centrifugation at 20,000× g at […] for 20 minutes. Then the pellets were resuspended in appropriate buffer at 1 mL/flask and stored at -70° C. until used in the receptor binding assay.
(§3) After 60 minutes incubation at 25° C., the incubations were terminated by rapid filtration through Whatmann GF/B glass fibre filters (soaked for 1 hour in 0.5% polyethylenimine) on a cell harvester, with three washes of 1 mL ice-cold buffer. Individual filter disks containing the bound ligand were placed in counting vials with 4 mL of scintillation fluid (Ready Gel, Beckman Instrument Inc., Fullerton, Calif.) and then counted in a Beckman LS-6800 liquid scintillation counter at an efficiency of 45%. Nonspecific binding was defined in presence of 1 mM of haloperidol.
(§4) Saturation and competition binding data were analyzed using an iterative nonlinear least-square curve-fitting Ligand program. […] Experimental compounds were made up as stock solutions in dimethyl sulfoxide (DMSO). […] Each observation was carried out in triplicate. To allow these calculations, Kd values were measured for the interaction of various ligands with the receptor.

Test [2] concerns amphetamine-stimulated locomotion. The test is described as follows: Blockade of Amphetamine-Stimulated Locomotion (BASL) in Rats. The test is classed as in vivo, Male Sprague-Dawley rats. The following applies: Rattus norvegicus, 0.5 h, read-out: BASL ED50, mg/kg PO (dose which would reverse amphetamine-stimulated locomotion by 50%), drug 30 minutes prior to test, amphetamine 0.5 mg/kg IP 15 minutes prior to test, 30 minute test. From the text:
Blockade of Amphetamine-Stimulated Locomotion (BASL) in Rats
Hyperactivity of brain dopamine (DA) neuronal systems is believed to contribute to the symptomology of schizophrenia. This hypothesis is supported, in part, by the ability of drugs such as the indirect DA agonist, amphetamine, to exacerbate schizophrenia. The stimulatory effect of amphetamine can be blocked by one of two mechanisms: a postsynaptic blockade of DA receptors, or by the action of DA autoreceptor agonists at inhibitory presynaptic DA receptor sites. Currently available antipsychotic drugs are DA receptor antagonists; however, these compounds can also cause extrapyramidal side effects apparently due to complete postsynaptic receptor blockade. Antipsychotic agents produce sedation (manifested as decreased locomotion) in normal animals, as well as in animals treated with psychomotor stimulants by reducing the access of endogenous DA to postsynaptic receptors in the brain.
Male Sprague-Dawley rats (Harlan Labs) were used for these studies. Drugs were dissolved in saline or water and administered either orally (PO) or intraperitoneally (IP) in volumes of 5 mL/kg. Saline control rats and amphetamine (0.5 mg/kg IP) control rats are included with each study (n=4-6 rats per treatment group). for the IP studies, amphetamine is given 20 minutes prior to the drug, after which a 30 minute locomotor activity test is conducted. For the oral study, drug is dosed 30 minutes prior to test, while amphetamine is given 15 minutes prior to test, which allows time for oral absorption. Locomotor activity (centimeters travelled per 30 minute test) is measured in 16"×16" open chambers. Amphetamine generally produces a 2- to 3-fold increase in locomotion over saline controls. Drug effects are reported as percent reversal of amphetamine-stimulated locomotion. Significant changes in amphetamine-stimulated locomotion, relative to amphetamine-treated controls, were determined by t-test.

Test [3] deals with human dopamine D2 (Long form) receptor (Homo sapiens, UniProt P14416). The experiment in a line: D2 dopamine receptor binding assay ([3H]spiperone, membranes of CHO K1 cells).
Sequence of human dopamine D2 (Long form) receptor (P14416 whole entry): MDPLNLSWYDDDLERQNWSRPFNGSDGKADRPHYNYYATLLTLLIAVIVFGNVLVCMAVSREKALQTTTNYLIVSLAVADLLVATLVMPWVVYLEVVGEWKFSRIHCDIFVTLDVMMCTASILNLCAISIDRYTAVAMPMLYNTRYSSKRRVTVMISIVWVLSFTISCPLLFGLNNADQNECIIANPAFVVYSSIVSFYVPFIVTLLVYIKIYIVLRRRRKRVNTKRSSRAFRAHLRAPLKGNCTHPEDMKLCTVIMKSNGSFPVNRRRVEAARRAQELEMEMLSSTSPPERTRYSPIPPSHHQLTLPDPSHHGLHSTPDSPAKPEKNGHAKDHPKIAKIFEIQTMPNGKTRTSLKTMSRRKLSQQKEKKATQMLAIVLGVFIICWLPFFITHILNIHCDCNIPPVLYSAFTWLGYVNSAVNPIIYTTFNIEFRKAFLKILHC
From the text: as §1, §2, §3, §4

As for `Cc1ccc(N2CCN(CCC3NC(=O)c4ccccc43)CC2)cc1C` (single isomer, unassigned; (+)) [(+)-3-{2-[4-(3,4-Dimethyl-phenyl)-piperazin-1-yl]-ethyl}-2,3-dihydro-isoindol-1-one], the Ki in test [1] is 42 nM.

In the case of `Cc1ccc(N2CCN(CCC3NC(=O)c4ccccc43)CC2)cc1C` (single isomer, unassigned; (-)) [(-)-3-{2-[4-(3,4-Dimethyl-phenyl)-piperazin-1-yl]-ethyl}-2,3-dihydro-isoindol-1-one], the Ki in test [1] was determined as 7.8 nM. Moreover, the ED50 in test [2] stood at 1.5 mg/kg.

As to `Cc1nc(N2CCN(CCC3NC(=O)c4ccccc43)CC2)sc1C` (stereo not drawn) [3-[2-(4-(4,5-Dimethyl-thiazol-2-yl)-piperazin-1-yl)-ethyl]-2,3-dihydro-isoindol-1-one], the Ki is 20.8 nM in test [1] and greater than 5880 nM in test [3].

`O=C1NC(CCN2CCC(=C(c3ccccc3)c3ccccc3)CC2)c2ccccc21` (stereo not drawn) [3-[2-(4-(Diphenylmethylene)-piperidin-1-yl)-ethyl]-2,3-dihydro-isoindol-1-one]: the Ki came to 99.7 nM in test [1] and 2150 nM in test [3].

For the molecule `Cc1ccc(N2CCN(CCC3NC(=O)c4ccccc43)CC2)cc1` (stereo not drawn) [3-[2-(4-P-Tolyl-piperazin-1-yl)-ethyl]-2,3-dihydro-isoindol-1-one], the Ki was 12.4 nM in test [1] and greater than 5880 nM in test [3]. The ED50 in test [2] was less than 1 mg/kg.

On to `O=C1NC(CCN2CCN(c3ccccc3)CC2)c2ccccc21` (stereo not drawn) [3-[2-(4-Phenyl-piperazin-1-yl)-ethyl]-2,3-dihydro-isoindol-1-one], for which the Ki in test [1] turned out to be 24.5 nM.

`O=C1NC(CCN2CCN(c3ccc(Cl)cc3)CC2)c2ccccc21` (stereo not drawn) [3-[2-(4-p-Chlorophenyl-piperazin-1-yl)-ethyl]-2,3-dihydro-isoindol-1-one]: the Ki was 27.8 nM in test [1] and greater than 5880 nM in test [3].

On to `COc1ccc(N2CCN(CCC3c4ccccc4C(=O)N3C)CC2)cc1` (stereo not drawn) [3-[2-(4-p-Methoxyphenyl-piperazin-1-yl)-ethyl]-2,3-dihydro-2-methyl-isoindol-1-one], for which the results for the Ki in test [1] and in test [3] were 37.3 nM and greater than 5880 nM, respectively.

For `Cc1ccc(N2CCN(CCC3NC(=O)c4ccccc43)CC2)cc1C` (stereo not drawn) [3-{2-[4-(3,4-Dimethyl-phenyl)-piperazin-1-yl]-ethyl}-2,3-dihydro-isoindol-1-one], the Ki in test [1] stood at 8.77 nM. The ED50 in test [2] was found to be 3 mg/kg.

In the case of `Cc1ccc(C2CCN(CCC3NC(=O)c4ccccc43)CC2)cc1C` (stereo not drawn) [3-{2-[4-(3,4-Dimethyl-phenyl)-piperidin-1-yl]-ethyl}-2,3-dihydro-isoindol-1-one], the Ki in test [1] was determined as 9.27 nM; in test [3] (human D2 receptor, CHO K1 membranes, 0.2 nM [3H]spiperone, 60 min, 25° C., apparent Ki from IC50 (Cheng and Prusoff)), 1210 nM.

For `Cc1ccc(N2CCN(CCC3NC(=O)c4ccccc43)CC2)nc1` (stereo not drawn) [3-{2-[4-(5-Methyl-pyridin-2-yl)-piperazin-1-yl]-ethyl}-2,3-dihydro-isoindol-1-one], the Ki in test [1] was 22.6 nM; in test [3], greater than 5880 nM.
